Tests used:
Assay type in all cases: cell-based
[1] = tested on: interleukin-33 (IL-33) gene; assay: Inhibition of IL-33 gene expression in PMA-stimulated NHEK (real time PCR); details: Normal Human Epidermal Keratinocytes, PMA 25 ng/mL, 3 hours, compound 10 to 20 μM, GAPDH internal standard; FIG. 1 and FIG. 4
Procedure: The following provides the details of in vitro tests. 6×10^4 cells of Normal Human Epidermal Keratinocytes (NHEK manufactured by KURABO INDUSTRIES LTD.) were seeded on a 12 well plate and cultured at 37° C. under 5% CO2 conditions for 72 hours. The incubation medium was removed and then replaced by a culture medium including the following inflammatory stimulating substance (final concentration: 25 ng/mL) and the individual compound used in each of the above Test Examples, followed by further culturing at 37° C. under 5% CO2 conditions for 3 hours. Thereafter, total RNA was purified from cells according to the instruction manual of product name “PureLink RNA Mini kit” (INVITROGEN), and RNA purified using the test kit “ReverTra Ace™ qPCR RT Master Mix (manufactured by TOYOBO CO., LTD.)” was reverse-transcribed to cDNA. For the cDNA, IL-33 mRNA expression level was quantitatively evaluated by a real time PCR method. Glyceraldehyde-3-phosphate dehydrogenase (GAPDH) was used as an internal standard calibration. The compounds used in Test Examples were dissolved in dimethyl sulfoxide (DMSO) to prepare the individual stocks, and then respectively dissolved in the culture media to have a concentration of 10 to 20 μM. At this time, dilution was performed to allow DMSO to have a concentration (1% or less) at which no cytotoxicity is caused. […]

[2] = tested on: interleukin-1α (IL-1α) gene; assay: Inhibition of IL-1α gene expression in PMA-stimulated NHEK (real time PCR); details: Normal Human Epidermal Keratinocytes, PMA 25 ng/mL, 3 hours, compound 10 to 20 μM, GAPDH internal standard; FIG. 2 and FIG. 5
[3] = tested on: interleukin-1β (IL-1β) gene; assay: Inhibition of IL-1β gene expression in PMA-stimulated NHEK (real time PCR); details: Normal Human Epidermal Keratinocytes, PMA 25 ng/mL, 3 hours, compound 10 to 20 μM, GAPDH internal standard; FIG. 3 and FIG. 6

CCCCCCCCCCCCCCCC(=O)OC[C@H](O)[C@H]1OC(=O)C(OCC(O)CO)=C1O (stereo partly drawn) [2-O-glyceryl-6-O-hexadecanoyl ascorbic acid]
inhibited: IL-33 mRNA expression level [1] | expression of interleukin-1α (IL-1α) gene [2] | expression of interleukin-1β (IL-1β) gene [3]

Reference: patent US20250213525A1, “Atopic Dermatitis Improving Agent, Interleukin Production Inhibitor, and Inhibitor of Expression of Interleukin Gene” (PIAS CORPORATION, priority 2022, published 2025)
